This note sets out measurements from patent publication US20080194585A1, “Fungicidal Pyrazine Derivatives” (priority 2005, published 2008).

Marks after values point to notes of the source that are not given here.

One assay relates to Plasmopara viticola. Description: Test D: grape downy mildew, spray after inoculation of grape seedlings. It is filed as in vivo. An excerpt: Upon removal, disease ratings were made. […] A dash (-) indicates no test results.
For another assay, the system named is Phytophthora infestans. Description: whole plant or invertebrate. Type of assay: in vivo.
Assay [1] concerns Puccinia recondita f. sp. tritici. Put plainly: Test K: wheat leaf rust, preventive spray on wheat seedlings.
For the next assay, the system named is Botrytis cinerea. Description: Test E: tomato botrytis, preventive spray on tomato seedlings.
A further assay deals with Septoria nodorum. Put plainly: Test H: wheat glum blotch, preventive spray on wheat seedlings.
Assay [2] has as its system Erysiphe graminis f. sp. tritici. Description: Test L: wheat powdery mildew, preventive spray on wheat seedlings.
In a further assay the test system is Septoria tritici. Description: Test J: wheat leaf blotch, preventive spray on wheat seedlings. Type of assay: in vivo. To be noted: 40 ppm (marked *); 100 = 100% disease control, 0 = no control. An excerpt: A dash (-) indicates no test results.
The next assay relates to Pythium aphanidermatum. Put plainly: Test A: bluegrass pythium blight, preventive spray on bluegrass seedlings. Conditions: 40 ppm (marked *); 100 = 100% disease control, 0 = no control.
The test system of a further assay is Rhizoctonia oryzae. Put plainly: Test G: turf brown patch, preventive spray on creeping bent grass seedlings. Conditions: 40 ppm (marked *); 100 = 100% disease control, 0 = no control.
For assay [3], the system named is Colletotrichum orbiculare. Put plainly: Test B: cucumber Colletotrichum anthracnose, preventive spray on cucumber seedlings. Conditions: 40 ppm (marked *); 100 = 100% disease control, 0 = no control.
Where [4] appears, read: 40 ppm (marked *), 100 = 100% disease control, 0 = no control.

Method for Rhizoctonia oryzae: (the causal agent of turf brown patch) and incubated in a saturated atmosphere at 27° C. for 24 h, and then moved to a growth chamber at 27° C. for 5 days, after which disease ratings were made.
Method for Septoria nodorum: (the causal agent of wheat glum blotch) and incubated in a saturated atmosphere at 20° C. for 48 h, and then moved to a growth chamber at 22° C. for 5 days, after which disease ratings were made.

Consider `CC(C)Cn1c(-c2ccc(C(F)(F)F)cc2)c(Cl)nc(-n2cccn2)c1=O` [compound 36], for which the “Test D disease control rating” value in the assay with Plasmopara viticola (200 ppm) is on record as 0%. Moreover, the “Test F disease control rating” value in the assay with Phytophthora infestans (200 ppm) came to 0%. Besides, the “Test K disease control rating” value in [1] (200 ppm) is recorded as 0%. Besides, the “Test E disease control rating” value in the assay on Botrytis cinerea (200 ppm) is given as 0%. The “Test H disease control rating” value with Septoria nodorum (200 ppm) is recorded as 0%. In [2] (200 ppm), the “Test L disease control rating” value was 0%.

Consider `COc1ccc(-c2c(Cl)nc(-n3cccn3)c(=O)n2CC(C)C)cc1` [compound 37], for which, in the assay on Plasmopara viticola (200 ppm), the “Test D disease control rating” value came out at 0%. The “Test F disease control rating” value with Phytophthora infestans (200 ppm) turned out to be 0%. Moreover, in assay [1] (200 ppm), the “Test K disease control rating” value worked out at 89%. Moreover, the “Test E disease control rating” value with Botrytis cinerea (200 ppm) is 100%. Further, the “Test H disease control rating” value in the assay on Septoria nodorum (200 ppm) is recorded as 100%. In addition, in [2] (200 ppm), the “Test L disease control rating” value is 0%.

For `CC(C)Cn1c(-c2ccc(OC(F)(F)F)cc2)c(Cl)nc(-n2cccn2)c1=O` [compound 38], in the assay on Plasmopara viticola (200 ppm), the “Test D disease control rating” value stood at 0%. Also, in the assay with Phytophthora infestans (200 ppm), the “Test F disease control rating” value is 0%. The “Test K disease control rating” value in assay [1] (200 ppm) amounted to 0%. The “Test E disease control rating” value in the assay on Botrytis cinerea (200 ppm) was 0%. Moreover, in the assay with Septoria nodorum (200 ppm), the “Test H disease control rating” value turned out to be 0%. Also, the “Test L disease control rating” value in assay [2] (200 ppm) stood at 0%.

On to `O=c1c(-n2cccn2)nc(Cl)c(-c2c(F)cccc2F)n1Cc1ccccc1F` [compound 336], for which the “Test D disease control rating” value with Plasmopara viticola (setting [4]) was 0* %. Also, in the assay with Phytophthora infestans (setting [4]), the “Test F disease control rating” value is given as 0* %. Besides, in the assay on Septoria tritici, the “Test J disease control rating” value is 100* %. Moreover, the “Test K disease control rating” value in [1] (setting [4]) is listed as 100* %. Also, the “Test E disease control rating” value with Botrytis cinerea (setting [4]) is given as 99* %. The “Test H disease control rating” value in the assay with Septoria nodorum (setting [4]) is 99* %. In addition, the “Test L disease control rating” value in [2] (setting [4]) is on record as 98* %. In the assay with Pythium aphanidermatum, the “Test A disease control rating” value is 0* %. In the assay on Rhizoctonia oryzae, the “Test G disease control rating” value was 41* %. In [3], the “Test B disease control rating” value is reported as 0* %.

As for `Cc1ccn(-c2nc(Cl)c(-c3c(F)cc(F)cc3F)n(-c3ccccc3F)c2=O)n1` [compound 355], the “Test D disease control rating” value with Plasmopara viticola (setting [4]) is listed as 0* %. In the assay with Phytophthora infestans (setting [4]), the “Test F disease control rating” value is given as 0* %. Moreover, in the assay with Septoria tritici, the “Test J disease control rating” value is listed as 100* %. Moreover, the “Test K disease control rating” value in assay [1] (setting [4]) is given as 99* %. Also, the “Test E disease control rating” value in the assay with Botrytis cinerea (setting [4]) is given as 99* %. In the assay on Septoria nodorum (setting [4]), the “Test H disease control rating” value is given as 100* %. The “Test L disease control rating” value in assay [2] (setting [4]) is recorded as 57* %. Also, the “Test A disease control rating” value in the assay on Pythium aphanidermatum is on record as 0* %. The “Test G disease control rating” value with Rhizoctonia oryzae is recorded as 66* %. In [3], the “Test B disease control rating” value is 99* %.

As for `Cc1ccn(-c2nc(Cl)c(-c3c(F)cc(F)cc3F)n(-c3cccc(F)c3)c2=O)n1` [compound 356], the “Test D disease control rating” value with Plasmopara viticola (setting [4]) is 0* %. For the same molecule, the “Test F disease control rating” value in the assay on Phytophthora infestans (setting [4]) is 0* %. Further, in the assay on Septoria tritici, the “Test J disease control rating” value is recorded as 100* %. Besides, the “Test K disease control rating” value in assay [1] (setting [4]) is 100* %. In the assay with Botrytis cinerea (setting [4]), the “Test E disease control rating” value is 100* %. In addition, the “Test H disease control rating” value in the assay with Septoria nodorum (setting [4]) is on record as 100* %. The “Test L disease control rating” value in [2] (setting [4]) was 100* %. Besides, the “Test A disease control rating” value in the assay with Pythium aphanidermatum is reported as 0* %. The “Test G disease control rating” value in the assay with Rhizoctonia oryzae is on record as 93* %. Besides, the “Test B disease control rating” value in assay [3] was 99* %.

Consider `Cc1ccn(-c2nc(Cl)c(-c3c(F)ccc(F)c3F)n(-c3ccccc3)c2=O)n1` [compound 358], for which the “Test D disease control rating” value in the assay on Plasmopara viticola (setting [4]) is recorded as 0* %. Also, the “Test J disease control rating” value in the assay with Septoria tritici was 100* %. Besides, in assay [1] (setting [4]), the “Test K disease control rating” value is 100* %. Moreover, in the assay on Botrytis cinerea (setting [4]), the “Test E disease control rating” value is 99* %. In addition, the “Test H disease control rating” value in the assay with Septoria nodorum (setting [4]) is listed as 100* %. Moreover, in assay [2] (setting [4]), the “Test L disease control rating” value was 91* %. Moreover, the “Test A disease control rating” value with Pythium aphanidermatum was 0* %. For the same molecule, the “Test G disease control rating” value in the assay with Rhizoctonia oryzae is 92* %. Further, the “Test B disease control rating” value in assay [3] was 0* %.

With `O=c1c(-n2cccn2)nc(Cl)c(-c2c(F)cc(F)cc2F)n1-c1ccc(F)c(F)c1` [compound 365], the “Test D disease control rating” value with Plasmopara viticola (setting [4]) is 16* %. In addition, the “Test F disease control rating” value with Phytophthora infestans (setting [4]) is listed as 0* %. Further, in the assay with Septoria tritici, the “Test J disease control rating” value is listed as 100* %. Also, the “Test K disease control rating” value in assay [1] (setting [4]) is 100* %. For the same molecule, the “Test E disease control rating” value with Botrytis cinerea (setting [4]) is reported as 98* %. In the assay with Septoria nodorum (setting [4]), the “Test H disease control rating” value is listed as 100* %. Moreover, in assay [2] (setting [4]), the “Test L disease control rating” value is recorded as 96* %. In the assay on Pythium aphanidermatum, the “Test A disease control rating” value was 0* %. Further, in the assay on Rhizoctonia oryzae, the “Test G disease control rating” value is on record as 99* %. In assay [3], the “Test B disease control rating” value is 99* %.

Turning to `Cc1ccn(-c2nc(Cl)c(-c3c(F)cc(F)cc3F)n(-c3ccc(F)c(F)c3)c2=O)n1` [compound 366], the “Test D disease control rating” value in the assay on Plasmopara viticola (setting [4]) is given as 0* %. Further, the “Test F disease control rating” value in the assay on Phytophthora infestans (setting [4]) was 0* %. Also, in the assay with Septoria tritici, the “Test J disease control rating” value is on record as 96* %. Further, the “Test K disease control rating” value in [1] (setting [4]) is recorded as 100* %. Besides, the “Test E disease control rating” value with Botrytis cinerea (setting [4]) is recorded as 99* %. For the same molecule, the “Test H disease control rating” value with Septoria nodorum (setting [4]) was 100* %. In assay [2] (setting [4]), the “Test L disease control rating” value is listed as 93* %. Also, the “Test A disease control rating” value in the assay on Pythium aphanidermatum was 0* %. For the same molecule, the “Test G disease control rating” value with Rhizoctonia oryzae is listed as 89* %. In assay [3], the “Test B disease control rating” value is reported as 99* %.

`O=c1c(-n2cccn2)nc(Cl)c(-c2c(F)cc(F)cc2F)n1-c1cc(F)cc(F)c1` [compound 367]: in the assay with Plasmopara viticola (setting [4]), the “Test D disease control rating” value is given as 0* %. Further, the “Test F disease control rating” value with Phytophthora infestans (setting [4]) is listed as 0* %. Further, in the assay with Septoria tritici, the “Test J disease control rating” value is given as 99* %. In addition, the “Test K disease control rating” value in assay [1] (setting [4]) is listed as 100* %. Besides, in the assay on Botrytis cinerea (setting [4]), the “Test E disease control rating” value is reported as 99* %. For the same molecule, the “Test H disease control rating” value in the assay with Septoria nodorum (setting [4]) is 100* %. Besides, in [2] (setting [4]), the “Test L disease control rating” value is given as 99* %. Moreover, in the assay with Pythium aphanidermatum, the “Test A disease control rating” value is 0* %. Besides, the “Test G disease control rating” value in the assay with Rhizoctonia oryzae was 99* %. In assay [3], the “Test B disease control rating” value is 100* %.

On to `Cc1ccn(-c2nc(Cl)c(-c3c(F)cc(F)cc3F)n(-c3cc(F)cc(F)c3)c2=O)n1` [compound 368], for which the “Test D disease control rating” value in the assay on Plasmopara viticola (setting [4]) is listed as 0* %. Further, in the assay on Phytophthora infestans (setting [4]), the “Test F disease control rating” value is reported as 0* %. Further, in the assay with Septoria tritici, the “Test J disease control rating” value is 100* %. Moreover, the “Test K disease control rating” value in [1] (setting [4]) was 100* %. Moreover, the “Test E disease control rating” value with Botrytis cinerea (setting [4]) was 99* %. Further, the “Test H disease control rating” value in the assay on Septoria nodorum (setting [4]) was 100* %. Further, in assay [2] (setting [4]), the “Test L disease control rating” value was 99* %. Besides, in the assay with Pythium aphanidermatum, the “Test A disease control rating” value was 0* %. In the assay with Rhizoctonia oryzae, the “Test G disease control rating” value was 99* %. Further, the “Test B disease control rating” value in assay [3] is recorded as 99* %.

With `O=c1c(-n2cccn2)nc(Cl)c(-c2c(F)cc(F)cc2F)n1-c1cccc(F)c1F` [compound 369], the “Test D disease control rating” value in the assay with Plasmopara viticola (setting [4]) is listed as 0* %. Besides, in the assay with Phytophthora infestans (setting [4]), the “Test F disease control rating” value is reported as 0* %. Besides, in the assay on Septoria tritici, the “Test J disease control rating” value was 100* %. In [1] (setting [4]), the “Test K disease control rating” value was 100* %. Besides, the “Test E disease control rating” value in the assay with Botrytis cinerea (setting [4]) is on record as 99* %. The “Test H disease control rating” value with Septoria nodorum (setting [4]) is given as 100* %. Moreover, the “Test L disease control rating” value in [2] (setting [4]) is given as 98* %. For the same molecule, the “Test A disease control rating” value in the assay on Pythium aphanidermatum was 0* %. The “Test G disease control rating” value in the assay with Rhizoctonia oryzae is on record as 99* %. Besides, the “Test B disease control rating” value in [3] is on record as 100* %.
